Reference: ChEMBL document CHEMBL1127526, “A comparison of the cytotoxic and physical properties of aziridinyl quinone derivatives based on the pyrrolo[1,2-a]benzimidazole and pyrrolo[1,2-a]indole ring systems” (J Med Chem, 1994)

Assay: The highest concentration employed in the cytotoxicity assay was reported
Format: functional

CC(=O)OC1CCn2c1nc1c2C(=O)C(C)=C(N2CC2)C1=O (stereo unspecified)
Concentration: 1 M
